Laboratory results: patent US5766848A (Synaptic Pharmaceutical Corporation, priority 1994, dated 1998)

How the values were obtained:
human GAT-3 = molecular target: T1, human GAT-3 (Homo sapiens, UniProt P48066); assay: Inhibition of [3H]GABA uptake, human GAT-3 stable LM(tk-) cell line; format: cell-based; settings: read-out: IC50, human GAT-3, inhibition of [3H]GABA uptake, Table 9, means ± S.E.M.
T1 construct: expressed in transfected cells
T1 sequence (P48066 1-632): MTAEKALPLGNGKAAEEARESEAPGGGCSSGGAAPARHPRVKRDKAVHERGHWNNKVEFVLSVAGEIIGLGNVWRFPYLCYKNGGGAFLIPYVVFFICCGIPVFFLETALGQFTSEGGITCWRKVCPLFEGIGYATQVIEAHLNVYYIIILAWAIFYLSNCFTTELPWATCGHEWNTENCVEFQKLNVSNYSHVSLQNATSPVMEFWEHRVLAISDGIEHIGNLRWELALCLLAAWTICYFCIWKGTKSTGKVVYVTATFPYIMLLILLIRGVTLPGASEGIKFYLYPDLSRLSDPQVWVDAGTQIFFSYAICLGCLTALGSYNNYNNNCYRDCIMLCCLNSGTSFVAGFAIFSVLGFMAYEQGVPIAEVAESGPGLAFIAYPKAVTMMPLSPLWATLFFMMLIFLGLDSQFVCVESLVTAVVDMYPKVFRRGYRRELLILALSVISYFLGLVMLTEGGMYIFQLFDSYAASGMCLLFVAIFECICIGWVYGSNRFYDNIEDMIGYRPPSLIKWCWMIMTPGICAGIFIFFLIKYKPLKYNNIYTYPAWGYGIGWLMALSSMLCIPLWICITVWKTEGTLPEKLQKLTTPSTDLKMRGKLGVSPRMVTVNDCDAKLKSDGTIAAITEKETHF
Experimental: (§1) Cells were grown under standard conditions (37° C., 5% CO2) in DMEM (Dulbecco's modified Eagles's medium; GIBCO, Grand Island, N.Y.).
(§2) Cells grown in 24-well plates were washed 3× with HEPES-buffered saline (HBS, in mM: NaCl, 150; HEPES, 20; CaCl2, 1; glucose, 10; KCl, 5; MgCl2 1; pH 7.4) and allowed to equilibrate on a 37° C. slide warmer. After 10 minutes the medium was removed and unlabeled drugs in HBS were added (450 μl/well). […] Plates were incubated at 37° C. for 10 minutes, then washed rapidly 3× with ice-cold HBS, using a 24-position plate washer (Brandel, Gaithersburg, Mass.; model PW-12). Cells were solubilized with 0.05% sodium deoxycholate/0.1N NaOH (0.25 ml/well), an aliquot neutralized with 1N HCl, and radioactivity was determined by scintillation counting. Protein was quantified in an aliquot of the solubilized cells using a BIO-RAD protein assay kit, according to the manufacturer's directions.
(§3) Competition curves were conducted in duplicate, using 10 concentrations of unlabeled drug. […] All data throughout the paper represent means±S.E.M.

human BGT-1 = molecular target: T2, human BGT-1 (Homo sapiens, UniProt P48065); settings: read-out: IC50, human BGT-1, inhibition of [3H]GABA uptake; Table 9; stable LM(tk-) cell line; means ± S.E.M.
T2 sequence (P48065 1-614 C10Y): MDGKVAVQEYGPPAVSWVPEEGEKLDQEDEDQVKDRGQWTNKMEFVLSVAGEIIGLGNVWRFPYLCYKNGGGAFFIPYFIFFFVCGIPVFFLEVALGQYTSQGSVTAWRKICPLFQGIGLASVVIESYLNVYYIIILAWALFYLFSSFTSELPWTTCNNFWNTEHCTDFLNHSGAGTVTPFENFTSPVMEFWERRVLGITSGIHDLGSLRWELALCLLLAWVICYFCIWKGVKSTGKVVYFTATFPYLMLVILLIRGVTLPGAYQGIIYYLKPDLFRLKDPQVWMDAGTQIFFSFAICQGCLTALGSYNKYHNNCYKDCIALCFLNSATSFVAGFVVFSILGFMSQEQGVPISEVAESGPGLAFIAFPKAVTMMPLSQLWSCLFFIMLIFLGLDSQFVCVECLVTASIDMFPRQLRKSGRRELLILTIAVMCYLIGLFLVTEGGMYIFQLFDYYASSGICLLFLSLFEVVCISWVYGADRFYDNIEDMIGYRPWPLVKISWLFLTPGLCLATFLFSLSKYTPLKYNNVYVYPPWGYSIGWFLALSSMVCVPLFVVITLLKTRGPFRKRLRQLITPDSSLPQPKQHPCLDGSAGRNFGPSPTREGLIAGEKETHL
Experimental: Cells were grown under standard conditions (37° C., 5% CO2) in Dulbecco's modified Eagles's medium (GIBCO, Grand Island, N.Y.).
After 10 minutes the medium was removed and unlabeled drugs in HBS were added (450 μl/well). […] Plates were incubated at 37° C. for 10 minutes, then washed rapidly 3× with ice-cold HBS, using a 24-position plate washer (Brandel, Gaithersburg, Mass.; model PW-12). Cells were solubilized with 0.05% sodium deoxycholate/0.1N NaOH (0.25 ml/well), an aliquot neutralized with 1N HCl, and radioactivity was determined by scintillation counting. Protein was quantified in an aliquot of the solubilized cells using a BIO-RAD protein assay kit, according to the manufacturer's directions.
Data Analysis: Competition curves were conducted in duplicate, using 10 concentrations of unlabeled drug. […] All data throughout the paper represent means±SEM.
as §1, §2, §3

human GAT-1 = human GAT-1 (Homo sapiens, UniProt P30531); settings: read-out: IC50, human GAT-1, inhibition of [3H]GABA uptake
Experimental: as §1, §2, §3

[1] = literature reports; cited from earlier work
[2] = human volunteers (CI-966); clinical reports (Tiagabine); cited from earlier work

human GAT-1, sequence (P30531 whole entry): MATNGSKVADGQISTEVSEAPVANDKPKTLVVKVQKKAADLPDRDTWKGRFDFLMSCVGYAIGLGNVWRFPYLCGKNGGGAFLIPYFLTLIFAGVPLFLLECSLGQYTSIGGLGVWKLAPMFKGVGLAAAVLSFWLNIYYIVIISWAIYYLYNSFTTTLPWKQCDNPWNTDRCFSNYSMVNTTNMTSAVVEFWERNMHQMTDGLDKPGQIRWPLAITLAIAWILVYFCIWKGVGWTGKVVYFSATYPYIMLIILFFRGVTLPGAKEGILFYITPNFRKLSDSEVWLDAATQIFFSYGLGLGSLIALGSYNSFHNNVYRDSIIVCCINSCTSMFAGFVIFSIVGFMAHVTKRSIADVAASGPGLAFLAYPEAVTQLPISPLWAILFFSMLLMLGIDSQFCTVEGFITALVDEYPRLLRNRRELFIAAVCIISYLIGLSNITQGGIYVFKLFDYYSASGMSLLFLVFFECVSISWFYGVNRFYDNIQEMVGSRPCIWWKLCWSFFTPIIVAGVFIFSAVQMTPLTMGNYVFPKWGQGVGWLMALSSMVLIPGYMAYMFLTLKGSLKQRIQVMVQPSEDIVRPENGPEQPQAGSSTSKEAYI

Work on `O=C(O)C1=CCCN(CCOC(c2ccc(C(F)(F)F)cc2)c2ccc(C(F)(F)F)cc2)C1` [CI-966, [1-[2-[bis4(trifluoromethyl)phenyl]methoxy]ethyl]-1,2,5,6-tetrahydro-3-pyridinecarboxylic acid] yielded an IC50 (human GAT-3) of 333 ± 76 µM, an IC50 (human BGT-1) of 300 ± 10 µM and an IC50 (human GAT-1) of 0.26 ± 0.05 µM. For the same molecule, the “anticonvulsive activity in animals” value [1] was “display anticonvulsive activity” and the “severe adverse effects in humans” value [2] was “Severe adverse effects were noted”.
